The test system of data set [1] is primary human hepatocytes. The following applies: primary human hepatocytes from three donors.
Data set [2] in a line: 8-day MTS cytotoxicity assay, HepG2. It counts as cell-based, human. The following applies: human.
A short description of data set [3]: 8-day MTS cytotoxicity assay, Huh7. The following applies: human. The class given is cell-based, human. (Tetrazolium dyes change colour on reduction, which living cells bring about.)
For data set [4], the system named is mitochondrial COXII DNA (mtDNA). Put plainly: Mitochondrial COXII DNA and ribosomal DNA by real time PCR, HepG2. The class given is cell-based, human. The following applies: human.
The test system of data set [5] is ribosomal DNA (rDNA). The data set is described as above. The class given is cell-based, human. The settings on record: human.
Data set [6] is described as follows: 8-day MTS cytotoxicity assay, CEM. It counts as cell-based, human. The settings on record: human.
A short description of data set [7]: 8-day MTS cytotoxicity assay, BxPC3. The class given is cell-based, human. The settings on record: human.
Data set [8] concerns HepG2 cells. Nature of the data set: Lactic acid production, HepG2. The settings on record: 7 days, normalised to rDNA.
In data set [9] the test system is Clone A wild type replicon. Put plainly: Cross resistance: Clone A wild type replicon, RT-PCR. The following applies: Hepatitis C virus, read-out: EC90 WT replicon. It counts as cell-based, HCV. (In general: A replicon is a self-replicating genome or part of one, used to study replication in cells.)
Data set [10] concerns mitochondrial COXII DNA (mtDNA). Put plainly: Mitochondrial COXII DNA and ribosomal DNA by real time PCR, CEM. The settings on record: human. The class given is cell-based, human. (In general: Quantitative PCR measures a nucleic acid by following its amplification.)
The subject of data set [11] is ribosomal DNA (rDNA). The description is as above. The class given is cell-based, human. The settings on record: human.
Data set [12] has as its system CEM cells. Put plainly: Lactic acid production, CEM. The following applies: 7 days, normalised to rDNA.
Data set [13] deals with ET replicon with NS5B S96T/N142T. Nature of the data set: microbe, parasite or virus in culture. It counts as cell-based, HCV.
Data set [14] concerns Clone A replicon with NS5B S282T. Nature of the data set: microbe, parasite or virus in culture. The class given is cell-based, HCV.
Data set [15] concerns the target recombinant NS5B genotype 4a (Hepatitis C virus genotype 4a, UniProt O39929). Put plainly: NS5B polymerase assay, genotype 4a. It counts as biochemical, HCV.
The target of data set [16] is recombinant HCV NS5B genotype 1b (Con1 strain), wild-type (Hepatitis C virus genotype 1b, UniProt Q9WMX2). Nature of the data set: NS5B polymerase assay, genotype 1b wild-type. It counts as biochemical.
In data set [17] the target is recombinant NS5B genotype 3a (Hepatitis C virus genotype 3a, UniProt Q81258). Put plainly: NS5B polymerase assay, genotype 3a. The class given is biochemical, HCV.
Data set [18] addresses S282T genotype 1b NS5B (Con1 strain) (Hepatitis C virus genotype 1b, UniProt Q9WMX2, S2701T). Put plainly: biochemical. More on the design: species or system HCV.
Data set [19] deals with S282T genotype 1b NS5B (Con1 strain). Put plainly: biochemical. More on the design: species or system HCV. The following applies: genotype 1b RdRp, 5 μM NTPs.
Data set [20] addresses recombinant NS5B genotype 2a (JFH-1 strain) (Hepatitis C virus genotype 2a, UniProt Q99IB8). Nature of the data set: NS5B polymerase assay, genotype 2a. It counts as biochemical, HCV.
The test system of data set [21] is primary human hepatocytes. Put plainly: Metabolism of [3H]-PSI-353661 in primary human hepatocytes. The class given is in vitro ADME. The settings on record: for time to maximum intracellular concentration: continuous exposure to 5 μM [3H]-PSI-353661.
For data set [22], the target named is 3-phosphoglycerate kinase (3-PGK) (Saccharomyces cerevisiae, UniProt P00560). Put plainly: Phosphorylation by 3-phosphoglycerate kinase. It counts as biochemical, bakers yeast. The following applies: kinetic parameters unable to be determined (Km too high).
Chain of 3-phosphoglycerate kinase (3-PGK) (P00560 whole entry): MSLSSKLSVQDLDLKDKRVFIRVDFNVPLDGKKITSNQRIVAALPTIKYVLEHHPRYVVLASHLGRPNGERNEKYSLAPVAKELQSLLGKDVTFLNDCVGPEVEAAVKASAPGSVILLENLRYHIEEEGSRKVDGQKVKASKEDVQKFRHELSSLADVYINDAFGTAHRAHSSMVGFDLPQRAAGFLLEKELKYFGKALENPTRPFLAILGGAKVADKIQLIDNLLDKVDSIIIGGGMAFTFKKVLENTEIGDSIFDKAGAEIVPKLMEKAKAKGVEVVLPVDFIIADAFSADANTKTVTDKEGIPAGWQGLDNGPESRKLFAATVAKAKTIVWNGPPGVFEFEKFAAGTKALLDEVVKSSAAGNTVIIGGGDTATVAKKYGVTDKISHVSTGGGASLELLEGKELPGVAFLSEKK
Data set [23] relates to Human nucleoside diphosphate kinase (NDPK). Put plainly: NDPK-mediated phosphorylation, coupled assay. The class given is biochemical.
For a further data set, the target named is rabbit muscle PK (Oryctolagus cuniculus, UniProt P11974). Put plainly: Phosphorylation by pyruvate kinase. The following applies: kinetic parameters unable to be determined (Km too high). It counts as biochemical.
Chain of rabbit muscle PK (P11974 whole entry): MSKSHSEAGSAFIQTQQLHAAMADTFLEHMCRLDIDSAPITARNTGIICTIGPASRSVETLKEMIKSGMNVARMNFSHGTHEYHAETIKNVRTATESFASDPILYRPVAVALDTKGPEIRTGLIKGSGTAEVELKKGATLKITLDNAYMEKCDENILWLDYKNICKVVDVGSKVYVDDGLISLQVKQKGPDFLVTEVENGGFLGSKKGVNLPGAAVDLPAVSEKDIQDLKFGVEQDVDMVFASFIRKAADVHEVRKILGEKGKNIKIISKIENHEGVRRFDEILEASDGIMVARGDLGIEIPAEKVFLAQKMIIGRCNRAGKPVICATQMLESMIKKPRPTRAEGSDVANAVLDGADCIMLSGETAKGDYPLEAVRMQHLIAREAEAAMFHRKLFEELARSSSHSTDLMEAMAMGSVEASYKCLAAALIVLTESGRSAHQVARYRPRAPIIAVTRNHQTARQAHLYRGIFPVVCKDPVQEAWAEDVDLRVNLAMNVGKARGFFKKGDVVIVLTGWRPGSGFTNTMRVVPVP
For data set [24], the target named is L-alanine dehydrogenase (Ala-DH) (Bacillus subtilis, UniProt Q08352).
Chain of L-alanine dehydrogenase (Ala-DH) (Q08352 whole entry): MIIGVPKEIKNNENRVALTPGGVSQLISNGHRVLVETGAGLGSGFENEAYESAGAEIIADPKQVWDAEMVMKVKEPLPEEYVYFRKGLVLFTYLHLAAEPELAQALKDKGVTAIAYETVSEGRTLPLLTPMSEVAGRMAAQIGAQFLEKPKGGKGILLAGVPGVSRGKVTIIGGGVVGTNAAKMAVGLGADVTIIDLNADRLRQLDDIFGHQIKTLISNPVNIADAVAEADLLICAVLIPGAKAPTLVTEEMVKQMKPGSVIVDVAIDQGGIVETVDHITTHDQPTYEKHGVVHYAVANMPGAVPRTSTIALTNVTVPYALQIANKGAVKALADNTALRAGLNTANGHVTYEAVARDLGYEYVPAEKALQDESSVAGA
For data set [25], the system named is HepG2 cells. Nature of the data set: Mitochondrial COXII DNA and ribosomal DNA by real time PCR, HepG2. The settings on record: HepG2 cells, 0.5 μM (lowest concentration tested), 14 days. It counts as cell-based, human.
Data set [26] deals with CEM cells. Put plainly: Mitochondrial COXII DNA and ribosomal DNA by real time PCR, CEM. It counts as cell-based, human. The following applies: CEM cells, 0.5 μM (lowest concentration tested), 14 days.
Data set [27] has as its system primary human hepatocytes.
Setting [28] is: Hepatitis C virus, read-out: EC90 Mutant replicon.

Each structure is given as a SMILES string. Like-named read-outs stand apart in the source and are kept apart here.

For `O=[N+]([O-])c1ccc(OP(=O)(O)Oc2ccc([N+](=O)[O-])cc2)cc1` [BNPP, bis(4-nitrophenyl)phosphate], the “effect on formation of the triphosphate PSI-352666 from PSI-353661” value in data set [1] is reported as “inhibited the formation of PSI-352666 in hepatocytes from three different donors in a dose-dependent manner”.

One may read the CC50 as the concentration that lowers cell viability or growth by half. Read a low CC50 as greater toxicity to the cells. A word on the EC90: it is the concentration at which the effect reaches the 90% level. For `COc1nc(N)nc2c1ncn2[C@@H]1O[C@H](COP(=O)(N[C@@H](C)C(=O)OCC(C)(C)C)Oc2cccc3ccccc23)[C@@H](O)[C@@]1(C)O` (stereo partly shown) [INX-08189], the half-maximal cytotoxic concentration (CC50) at 8 days is 2230 ± 100 nM in data set [2], 320 ± 30 nM in [3], 15 ± 2 µM in data set [6] and 2810 ± 1520 nM in data set [7]. The CC90 at 14 days in [4] came out at 970 ± 620 nM; in the data set on ribosomal DNA (rDNA) [5], 0.75 ± 0.27 µM; in data set [10], 16.9 ± 1.7 µM; in the data set on ribosomal DNA (rDNA) [11] it was 16.3 ± 4.1 µM. Also, the “Lactic acid (Fold change from untreated cells)” value is listed as 1.1 ± 0.21 in the data set on HepG2 cells [8] (0.1 μM); 3.1 ± 0.61 in the data set with HepG2 cells [8] (1.0 μM); “Toxic” in the data set on HepG2 cells [8] (10 μM); “Toxic” in the data set with HepG2 cells [8] (50 μM); 1.4 ± 0.35 with CEM cells [12] (0.1 μM); 1.4 ± 0.69 with CEM cells [12] (1.0 μM). Besides, the “Lactic acid (Fold change from untreated cells)” value with CEM cells [12] (10 μM) is reported as 1.5 ± 0.50; in the data set on CEM cells [12] (50 μM), “Toxic”. In addition, the EC90 in [9] stood at 18 ± 1 nM; in data set [13] (setting [28]), 5.9 ± 2.7 nM; in [14] (setting [28]), 110 ± 4 nM. The EC90 fold change is on record as 1.1 in data set [13] (S96T/N142T mutant EC90 normalised to wild-type) and 6.1 in data set [14] (S282T mutant EC90 normalised to wild-type).

Usually IC50 stands for the concentration needed to halve the response being measured. Regarding `C[C@@]1(F)[C@H](O)[C@@H](COP(=O)(O)OP(=O)(O)OP(=O)(O)O)O[C@H]1n1cnc2c(=O)[nH]c(N)nc21` [PSI-352666, 2′-deoxy-2′-α-fluoro-2′-β-C-methylguanosine-5′-triphosphate], the half-inhibitory concentration (IC50) in data set [15] is 4.2 ± 0.8 µM; in data set [16] (IC50, genotype 1b NS5B, 1 μM NTPs) it was 1000 ± 200 nM; in data set [16] (IC50, wild-type genotype 1b RdRp, 5 μM NTPs), 4000 ± 1100 nM; in data set [17], 1300 ± 500 nM; in data set [18], 9.2 ± 1.4 µM; in data set [20], 4.7 ± 0.6 µM. Further, the “fold difference in IC50, S282T mutant vs wild-type” value in [19] is listed as about 2 fold. Also, in data set [21] (after 4 hours of exposure to PSI-353661), the intracellular concentration is over 50 µM. Besides, the “time to maximum intracellular concentration” value in data set [21] is “about 4 hours”.

In general, Km refers to the substrate concentration at which the rate is half of its maximum. `C[C@@]1(F)[C@H](O)[C@@H](COP(=O)(O)OP(=O)(O)O)O[C@H]1n1cnc2c(=O)[nH]c(N)nc21` [PSI-353579, 2′-deoxy-2′-α-fluoro-2′-β-C –methylguanosine-5′-diphosphate]: the “phosphorylation by 3-PGK” value in [22] is recorded as “Phosphorylation of PSI-353579 was also observed”. In data set [23] (25 °C, PK contributed in the phosphorylation), the “kcat (apparent)” value stood at 44.6 ± 4.9 s⁻¹. In addition, the Michaelis-Menten constant (Km) in data set [23] (read-out: Km (apparent), 25 °C, PK contributed in the phosphorylation) turned out to be 66.3 ± 2.2 µM. Further, the “phosphorylation by PK” value on rabbit muscle PK is “Phosphorylation of PSI-353579 was also observed”. For the same compound, the “time to maximum intracellular concentration” value in data set [21] was in the range of 1 to 2 h.

With `C[C@H](N)C(=O)O` [alanine, L-alanine], the Vmax in data set [24] is given as 0.0206 ± 0.0005 ΔA340/min.

`Nc1ccn([C@H]2CC[C@@H](CO)O2)c(=O)n1` [ddC, 2′,3′-dideoxycytidine]: the CC90 at 14 days is under 500 nM in data set [4], 12.9 ± 9.1 µM in the data set with ribosomal DNA (rDNA) [5] (HepG2 cells), under 0.5 µM in [10] and 22.9 ± 11.9 µM in the data set with ribosomal DNA (rDNA) [11] (CEM cells). Also, the “reduction of mitochondrial DNA levels” value in the data set on HepG2 cells [25] and in the data set on CEM cells [26] was “more than one log10” in each case. Also, the “Lactic acid (Fold change from untreated cells)” value in the data set on HepG2 cells [8] (0.1 μM) is recorded as 1.6 ± 0.68; in the data set on HepG2 cells [8] (1.0 μM), 1.4 ± 0.12; in the data set on HepG2 cells [8] (10 μM), 3.9 ± 0.93; with HepG2 cells [8] (50 μM) it was “Toxic”; in the data set on CEM cells [12] (0.1 μM), 0.9 ± 0.3; in the data set with CEM cells [12] (1.0 μM), 2.2 ± 0.81. The “Lactic acid (Fold change from untreated cells)” value in the data set on CEM cells [12] (10 μM) was 4.2 ±1.0; in the data set with CEM cells [12] (50 μM), “Toxic”.

Consider `CCC[C@H](NC(=O)[C@@H]1[C@H]2CCC[C@H]2CN1C(=O)[C@@H](NC(=O)[C@@H](NC(=O)c1cnccn1)C1CCCCC1)C(C)(C)C)C(=O)C(=O)NC1CC1` [telaprevir], for which, in data set [27], the “effect on formation of the triphosphate PSI-352666 from PSI-353661” value is “not inhibited by telaprevir in hepatocytes from two of the three donors”.
